Results on 6 compounds are retold here after patent US9377466B2, “Compounds and methods” (Modpro AB, priority 2010, dated 2016).

Data set [1] can be described thus: CD spectroscopy, mean residue ellipticity of the sixteen scaffold polypeptides. Particulars: error ±1000. The class given is physicochemical. The method, then: The mean residue ellipticities at 222 nm, [θ]222, □ of the sixteen scaffold polypeptides were recorded at two concentrations, approximately 30 μM and approximately 1 μM, to characterize the state of aggregation, cf.
The degree of helix formation is related to the monomer-dimer equilibrium since monomers are unordered with low helical content whereas dimers are highly helical. […] While the ^1H NMR spectra have not been recorded of all sequences and of all polypeptide conjugates, it is likely that the sequences presented here are best described as molten globules.

The subject of data set [2] is α-casein. Put plainly: Three-step fluorescence titration with α-casein (microtitre plate). Particulars: polypeptide without PP1; binder in the absence of Zn^2+ ions. In kind it is binding. The method, then: In a preliminary and simple assay executable in microtitre plate format, each of the eight binder candidates at a concentration of 500 nM in 10 mM HEPES buffer and 150 mM NaCl at pH 7.2, equipped with the fluorophor 7-methoxycoumarin-3-carboxylic acid, were titrated with α-casein in three steps (FIG. 8). Concentrations of peptides were determined from the absorbance of the coumarine probe and stock solutions at concentrations of 5 μM were prepared from which aliqiuots were transferred to the microtitre plate. […] The fluorescence emission spectre were recorded in the absence of protein, and in the presence of 500 nM, 1000 nM and 1500 nM protein to determine in a qualitative way whether or not binding was saturated at 500 nM concentration of both binder and protein. Saturation within experimental error at those concentrations is compatible with low nM affinity and tight binding.
All fluorescence experiments were conducted in 96 well polystyrene plates. All readings were performed by plate reader Molecular Devices Spectra max GEMINI XPS at 25° C. Each plate contained 300 μL of analyte. All polystyrene plates were specially prepared prior the measurements in order to minimize the unspecific binding of the analyte. All wells were filled with 1% aqueous solution of Pluronic and left overnight. […]

For data set [3], the system named is hAChE. The note with it: known inhibitor, literature; cited from earlier work.
Data set [4] addresses phosphopeptides. Particulars: literature; cited from earlier work.
Data set [5] relates to human Carbonic Anhydrase (HCAI and HCAII). The data set can be described thus: Extraction from lysed blood by binders on nanoparticles (SDS-PAGE, MS). The class given is binding. The note with it: lysed fresh blood, silver stained gel. The method, then: The selected binders were resynthesized with an Acm-protected Cys residue in position 24. After removal of the Acm group the binders were immobilized on polystyrene nanoparticles coated with Pluronic® F108-PDS, by incubation for 1 hour in 10 mM Phosphate buffer at pH 7.4 containing 150 mM NaCl. The coating material forms monolayers of PEG equipped with activated disulfide groups that spontaneously react with free thiols under the release of 2-mercaptopyridine (Fromell, K., Hulting, G., Ilichev, A., Larsson, A. & Caldwell, K. C. Analytical Chemistry 79, 8601-07 (2007)).
Approximately 60 μL of freshly drawn blood was lysed by dilution in 240 μL of distilled water followed by centrifugation to remove cell debris. HCAII resides in the red blood cells and in order to access the protein, cells have to be lysed. The supernatant was isolated and incubated with the functionalized nanoparticles for 30 minutes to allow them to capture HCAII. The particles were washed three times in PBS, and centrifuged after each wash. The binders and the captured proteins were cleaved from the particles using dithiothreitol and separated from the particles by centrifugation. […]
There are two isoforms of human Carbonic Anhydrase, HCA I and HCAII, in blood. […] The bands from the gel were cut, […] digested and analysed by MALDI-TOF-MS, displaying that the bands contained both isoforms. […]

For data set [6], the target named is T1, hAChE (Homo sapiens, UniProt P22303).
T1 construct: monitoring the capturing of hAChE from cerebrospinal fluid (CSF) obtained from Uppsala University hospital; from tissue; host or cells: human cerebrospinal fluid (Uppsala University Hospital)
The data set can be described thus: Capture of hAChE from cerebrospinal fluid by binder on nanoparticles (SDS-PAGE, nanoparticle ELISA). The note with it: binder on Pluronic-coated polystyrene nanoparticles, patient CSF, sandwich ELISA. The class given is binding. The method, then:
The selectivity of 4-C10L17-Ac was determined by monitoring the capturing of hAChE from cerebrospinal fluid (CSF) obtained from Uppsala University hospital. CSF represents a complex biological milieu with several other proteins in high concentration and one of considerable interest with regards to future applications. The selected binder was resynthesized with an acetamidomethyl-(Acm-) protected Cys residue in position 24, instead of an Ala in this position, and attached to polystyrene nanoparticles coated with Pluronic® F108-PDS by disulfide bond formation after Acm deprotection. […] After the washing steps the particles were analyzed by ELISA and gel electrophoresis. […]
The capture of hAChE by 4-C10L17-Ac was also analyzed by a nanoparticle ELISA based on luminescence. […] After three washing steps the substrate luminol was added and the resulting luminescent signal recorded. […]
Pluronic F108-PDS (Allvivo Inc.) was adsorbed to polystyrene latex nanoparticles (Bangs laboratories Inc.) by incubating a 2% (w/v) suspension of particles with 10 mg/mL of Pluronic F108-PDS over night at room temperature under constant shaking. […] Aliquots of 8 μL of the supernatants were analyzed by gradient SDS-PAGE gels electrophoresis using NuPAGE® Novex Bis-Tris 4-12% (v/w) gel and MES running buffer (Invitrogen). […]
For orientation: An ELISA detects its analyte on a solid surface through an enzyme-linked reagent.

Data set [7] in a line: Solubility in buffer. Particulars: sequence conjugated to a fluorescein probe.
The target in data set [8] is T2, HCAII (Homo sapiens, UniProt P00918).
T2 construct: purchased Sigma
Put plainly: SPR biosensor analysis, immobilized HCAII. In kind it is binding. Particulars: ratio of SPR dissociation constants. The method, then:
The sixteen polypeptide conjugates were also characterized by SPR biosensor analysis (Biacore®, GE Healthcare), using a Biacore® 2000 instrument, Biacore® CM-5 chip and HBS-EP buffer pH 7.4 (Biacore®, GE Healthcare) with addition of 1% DMSO for the interaction studies. Peptide solutions were prepared by dilution in buffer from 20 μM stock solutions in DMSO. HCAII was immobilized on the chip using standard EDC/NHS coupling in Acetate buffer pH 5.5. The binders were allowed to flow over the chip at 7 concentrations in the range from 1 nM to 500 nM and the interactions were evaluated using a 1:1 binding model (BiaEvaluation).
HCAI and HCAII were immobilized in different flowcells on a CM-5 (Biacore) chip using standard EDC/NHS coupling in Acetate buffer at pH 5.5.
SPR measurements were performed on a Biacore® 2000 instrument, with the proteins immobilized on a Biacore® CM-5 sensor chips (GE Healthcare). All interaction studies were performed in Biacore® HSB-EP buffer with the addition of 1% (v/v) DMSO. HCAII (Sigma, lyophilized powder) was dissolved in Acetate buffer pH 5.5 to a 2 mg/mL solution. HCAII were conjugated to the surface by EDC/NHS coupling reactions in Acetate buffer pH 5.5. Solutions of the polypeptide binders were prepared in HBS-EP buffer from stock solutions of 20 μM in DMSO and allowed to flow over the surface at 20 μL/min, with blank injections after every series. […]
Background: Surface plasmon resonance follows binding to a sensor surface in real time, without labels.

Side chains are listed from the residue outwards. * marks the point of attachment. Benzoyl(4-SO2NH2) = NS(=O)(=O)c1ccc(C(=O)*)cc1; Acridin9yl = c1ccc2c(*)c3ccccc3nc2c1; X1 = COc1ccc2cc(C(=O)*)c(=O)oc2c1; Ahx = NCCCCCC(=O)O

T1 sequence (P22303 32-614): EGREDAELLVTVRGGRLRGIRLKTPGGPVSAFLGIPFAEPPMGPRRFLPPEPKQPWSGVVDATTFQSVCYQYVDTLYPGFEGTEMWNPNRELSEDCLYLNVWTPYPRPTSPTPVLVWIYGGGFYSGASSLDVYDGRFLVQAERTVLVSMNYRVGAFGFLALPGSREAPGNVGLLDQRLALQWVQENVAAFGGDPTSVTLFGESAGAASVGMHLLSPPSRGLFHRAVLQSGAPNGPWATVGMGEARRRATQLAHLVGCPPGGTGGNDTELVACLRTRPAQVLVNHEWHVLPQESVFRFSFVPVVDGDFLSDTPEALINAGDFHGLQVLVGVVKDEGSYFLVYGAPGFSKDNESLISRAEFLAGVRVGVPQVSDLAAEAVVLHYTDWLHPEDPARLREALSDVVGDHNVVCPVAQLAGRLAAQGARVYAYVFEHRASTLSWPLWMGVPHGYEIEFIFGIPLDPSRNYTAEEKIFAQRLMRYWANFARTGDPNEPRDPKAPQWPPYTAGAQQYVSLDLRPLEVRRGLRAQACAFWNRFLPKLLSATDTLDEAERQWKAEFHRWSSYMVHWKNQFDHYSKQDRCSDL

As to “4-C10L17: SEQ ID NO: 8 NAADLEARIKHLRERLKARGPRDAAQLAEQLARAFERFARAG”, the “[θ]222 at high concentration” value in data set [1] (high concentration 30-230 μM as listed per peptide) is −19500 deg cm^2 dmol^−1. The “[θ]222 at low concentration” value in data set [1] (low concentration 1-5 μM as listed per peptide) is given as −11800 deg cm^2 dmol^−1. In addition, in data set [2], the “effect of α-casein on fluorescence emission spectrum, negative controls” value is recorded as “No effect”.

As for `Nc1c2ccccc2nc2ccccc12` [9-aminoacridine], the reported affinity in data set [3] is 30 to 100 nM. As to `O=C(O)c1cc(CN(Cc2ccccn2)Cc2ccccn2)cc(CN(Cc2ccccn2)Cc2ccccn2)c1` [PP1, 3,5-Bis[[bis(2-pyridylmethyl)amino]methyl]benzoic acid], the “dissociation constants for phosphopeptides” value in data set [4] is recorded as “μM range”.

With “Ac-NAADLEAK([Ahx-Benzoyl(4-SO2NH2)])IRHLAEK(X1)LAARGPVDAAQLAEQLARRFEAFARAG-NH2 (C-terminus assumed) [3-C15L8-B]”, in data set [5], the “proteins extracted from lysed blood” value is on record as “extract Carbonic Anhydrases predominantly”. “Ac-NAADLEARIK(X1)HLRERLK([Ahx-Ahx-Acridin9yl])ARGPRDAAQLAEQLARAFERFARAG-NH2 (C-terminus assumed) [4-C10L17-Ac]”: the “capture of hAChE from CSF” value in data set [6] is listed as “selectively extract hAChE from CSF”. Turning to “Ac-NAADLEARIRHLRERLAARGPRDAAQLAEQLARK([Ahx-Benzoyl(4-SO2NH2)])FEK(X1)FARAG-NH2 (N-terminus and C-terminus assumed) [4-C37L34-B]”, the solubility in buffer entry in data set [7] is on record as “poorly soluble”. Besides, the “proteins extracted from lysed blood” value in data set [5] is “extract Carbonic Anhydrases predominantly”. Further, the “discrimination between HCAI and HCAII (factor)” value in data set [8] is recorded as “approximately 30”.
